Data from PMC8776730 (Nature Communications, 2022).

Key:
[1] = Secondary structure proportions from CD spectra; type: physicochemical; settings: calculated by Reed's Reference based on CD spectra; DI water
Description: To further evaluate the assembled structures, the corresponding circular dichroism (CD), Fourier transform infrared (FTIR) spectroscopy, and wide-angle X-ray scattering (WAXS) spectroscopy were applied. […] The FITR spectra of M1 and M3 in Fig. 3b observed the intermolecular interactions. The peaks at 1629 cm^−1, 1675 cm^−1, and 1698 cm^–1 of M3 indicated anti-parallel β-sheet structure (represent by green arrow heads), peaks at 1648 cm^−1 and 1663 cm^−1 indicated parallel beta sheet structure (represent by blue arrow heads), the existence of 1654 cm^−1 indicate α-Helix structure in M1 which verified the results deduced by CD in Fig. 3a[29],[30]. […] As a homologous sequence with amyloid β-protein (Aβ), the self-assembly motif with peptide sequence of KLVFFGCG had similar aggregation kinetics to (Aβ)42 peptide, which occurred via dynamic growth from oligomers to amyloid fibrils. The aggregation started from the freshly isolated monomers of R-M1, and precipitates were separated in 1 min and 1 h, respectively. […] After analyzed the CD spectra of M1, M3, and R-M1 (Fig. 3e), it can be clearly seen that the main secondary conformation of M1 was Random, the M3 was hybrid of Helix and Beta, and the R-M1 was Beta (Supplementary Table 1). All the results confirmed the conclusion from FTIR spectra. […] The dynamic growth procedure was like the 8-anilino-1-naphthalenesulfonic acid (ANS) stained curve (Supplementary Fig. 12). As known, ANS was sensitive to hydrophobic interaction. When R-M1 were in the initial oligomer, the fluorescence intensity of ANS increased due to the enhanced hydrophobicity. When the molecules were elongated and stacked in higher ordered nanofibrils, the blue shift of ANS in the β-sheet structures reduced the fluorescence. The molecular packing mode of well-ordered fibrils of R-M1 in Fig. 3g observed a weak reflection at 4.9 Å as laminates space and a strong broad reflection at 10.3 Å as sheet space, which was illustrated in the inserted figure. The fibril morphology was characterized by transmission electron microscopy (TEM) imaging (Fig. 3f). The statistical calculation of the fiber diameter in TEM images was 5.0 ± 0.4 nm (Supplementary Fig. 13), which was corresponded to the theoretical calculated two molecules length of R-M1. We assumed that the nanofibers were assembled by twisted R-M1 molecules centered on self-assembly motif.
The secondary structures of M1, M3 and R-M1 were verified by CD spectroscopy (JASCO Corporation, JC-1500) at room temperature with a cell path length of 1 cm. M1, […] and R-M1 were diluted to 100 μM with deionized water at 25 °C and allowed to stand for 12 h for complete assembly. Detail parameter setting were CD scale:200 mdeg/1.0Dod, measure range: 260~190 nm, scanning speed: 500 nm/min, bandwidth: 1.00 nm, and data pitch: 0.5 nm. All spectra were the average of three measurements.
Supplementary Table 1∣ Secondary structure proportions ofM1, M3 and R-M1 calculated by Reed’s Reference based on […]

MIA PaCa-2 cells = test: Transwell migration assay; type: cell-based; settings: for migrated cells (Fig S20): MIA PaCa-2 cells
Experimental: Fig. 5 The BIVA effect with enhanced targeting to pancreatic tumor cell for boundaries imaging. a Illustration of BIVA effect: active targeting and assembly/aggregate induced retention (AIR) effect. b Chemical structure of FITC labeling. c 2D and 3D confocal images of M2 with active targeting property and M1 with BIVA effect on MIA PaCa-2 cells after incubation for 1 h. d The distribution of M1 on MIA PaCa-2 cell. e ThT staining of the lysed cell membrane of MIA PaCa-2. f, Illustration of migration inhibition after treated by BIVA probe. g The image of the migrated cells after treatment of PBS (blank), M2, M4, and M1. Scale bar: 100 μm. h The pie diagram of quantitative statistical calculation of the migrated cells (blue) in different groups. The blank control was set as 100% migrated cells.
In order to further understand the contribution of the active targeting and AIR effect during locating of the cells, the cell transwell experiment was used to quantitively evaluate interference of the cell migration based on M1, M2, and M4 (Fig. 5f). As expected, untreated cells were easy to migrate to the lower chamber, while the cells treated with active targeting molecule M2 and assembled molecule M4, the migration of cell were reduced. Under the same molar concentration, the M1 treatment group had the most inference on cell migration (Fig. 5g). […] Based on those results, we speculate M1 can be more enriched in the tumor site and form fibers through assembly to inhibit tumor cell migration compared to M2 and M4 which have no ability to target and adhere on the cell membrane.
Transwell migration assay occurred in chemotaxis chambers containing 24 wells. […] Bottom chambers contained DMEM medium containing 10% FBS. After 24 h of treatment with M1, M2, and M4 (150 μM), we fixed cells using 4% paraformaldehyde and stained with 0.25% crystal violet solution. The stained cells were counted using a microscope.
Supplementary Fig. 20∣ The quantitative results of the migrated cells after treatment of PBS (blank), M2, […] and
M1 (Fig 5g). The mean of results of fiveparallel experiments is shown and data were expressed as mean ± SD (n=5).
pM1 = 5.85E-06, pM2 = 5.94E-05, pM4 = 3.16 E-04, Statisticalanalysis: one-way ANOVA followed by post hoc Tukey’s
(1 picture or pasted object on this page, not shown here)

## mPEG-GPAKLVFFGC(IR783)GRGD [M1]
[1]
  Secondary structure proportion: Beta: 32.2%
  Secondary structure proportion: Helix: 0%
  Secondary structure proportion: Random: 66.1%
  Secondary structure proportion: Turn: 1.7%
MIA PaCa-2 cells; MIA PaCa-2, 150 μM, 24 h, blank control = 1
  emigrate (migrated cells relative to blank): 0.3109
MIA PaCa-2 cells; averge of groups 1-3
  migrated cells (Fig S20): 285.333
MIA PaCa-2 cells; group 1
  migrated cells (Fig S20): 285
MIA PaCa-2 cells; group 2
  migrated cells (Fig S20): 302
MIA PaCa-2 cells; group 3
  migrated cells (Fig S20): 269

## mPEG-GPAKLVFFGCGRGD [M3, the non-labeling molecule of M1 (no IR783)]
[1]
  Secondary structure proportion: Beta: 38.7%
  Secondary structure proportion: Helix: 45%
  Secondary structure proportion: Random: 16.3%
  Secondary structure proportion: Turn: 0%
MIA PaCa-2 cells; averge of groups 1-3
  migrated cells (Fig S20): 484.667
MIA PaCa-2 cells; group 1
  migrated cells (Fig S20): 483
MIA PaCa-2 cells; group 2
  migrated cells (Fig S20): 456
MIA PaCa-2 cells; group 3
  migrated cells (Fig S20): 515
